The test system of series [1] is Staphylococcus aureus. Description: Antimicrobial activity against Staphylococcus aureus after 24 hrs by microdilution technique in high salt condition. It is filed as functional.
Series [2] concerns Escherichia coli. Description: Antimicrobial activity against Escherichia coli after 24 hrs by microdilution technique in absence of NaCl. It is filed as functional.
Series [3] has as its system Micrococcus luteus. The series can be described thus: Antimicrobial activity against Micrococcus luteus after 24 hrs by microdilution technique in absence of NaCl. It is filed as functional. (In broth dilution the organism is exposed to a series of concentrations in liquid medium.)
In series [4] the test system is Candida albicans. Description: Antimicrobial activity against Candida albicans after 24 hrs by microdilution technique in high salt condition. It is filed as functional.
The subject of series [5] is Pseudomonas aeruginosa. Description: Antimicrobial activity against Pseudomonas aeruginosa after 24 hrs by microdilution technique in absence of NaCl. It is filed as functional.
Series [6] concerns Escherichia coli. The series can be described thus: Antimicrobial activity against Escherichia coli after 24 hrs by microdilution technique in high salt condition. It is filed as functional.
The test system of series [7] is Candida albicans. Description: Antimicrobial activity against Candida albicans after 24 hrs by microdilution technique in absence of NaCl. It is filed as functional.
Series [8] concerns Micrococcus luteus. The series can be described thus: Antimicrobial activity against Micrococcus luteus after 24 hrs by microdilution technique in high salt condition. It is filed as functional.
The next series deals with Erythrocyte. The series can be described thus: Hemolytic activity in human red blood cells after 1 hrs. It is filed as functional.
Series [9] deals with Pseudomonas aeruginosa. The series can be described thus: Antimicrobial activity against Pseudomonas aeruginosa after 24 hrs by microdilution technique in high salt condition. It is filed as functional.
Series [10] has as its system Staphylococcus aureus. Description: Antimicrobial activity against Staphylococcus aureus after 24 hrs by microdilution technique in absence of NaCl. It is filed as functional.
A short description of series [11]: Effect on leakage from large unilamellar vesicles containing phosphatidylglycerol/phosphatidyl choline assessed as release of entrapped dye at 50 uM. It is filed as physicochemical.

Converted amounts (≈) assume the structure as drawn. Where a SMILES comes first, the peptide text is derived from it. Bridges are numbered along the chain shown (N, C = ends).

As usually defined, the MIC is the least concentration at which growth counts as inhibited. One may read the HC50 as the concentration giving 50% haemolysis. For `CC(C)C[C@H](NC(=O)[C@H](CS)NC(=O)[C@H](Cc1cnc[nH]1)NC(=O)[C@H](C)NC(=O)[C@H](C)NC(=O)[C@H](CS)NC(=O)[C@H](C)NC(=O)[C@H](C)NC(=O)[C@@H](N)CC(=O)O)C(=O)N[C@@H](Cc1c[nH]c2ccccc12)C(=O)N[C@@H](CCCNC(=N)N)C(N)=O` (H-DAACAAHCLWR-NH2), the MIC in the series with Staphylococcus aureus [1], in the series on Escherichia coli [2], in the series on Micrococcus luteus [3], in the series with Candida albicans [4], with Pseudomonas aeruginosa [5] and with Escherichia coli [6] was above 200 µg/mL throughout. For the same compound, the MIC in the series with Candida albicans [7], in the series on Micrococcus luteus [8], with Pseudomonas aeruginosa [9] and with Staphylococcus aureus [10] was above 200 µg/mL throughout. Further, in the series on Erythrocyte, the HC50 was above 200 µg/mL.

In the case of `CC(C)C[C@H](NC(=O)[C@@H]1CSSC[C@H](NC(=O)[C@H](C)NC(=O)[C@H](C)NC(=O)[C@@H](N)CC(=O)O)C(=O)N[C@@H](C)C(=O)N[C@@H](C)C(=O)N[C@@H](Cc2cnc[nH]2)C(=O)N1)C(=O)N[C@@H](Cc1c[nH]c2ccccc12)C(=O)N[C@@H](CCCNC(=N)N)C(N)=O` (H-DAACAAHCLWR-NH2; disulfide 4-8), the MIC with Staphylococcus aureus [1], in the series on Escherichia coli [2], against Micrococcus luteus [3], in the series with Candida albicans [4], with Pseudomonas aeruginosa [5] and in the series on Escherichia coli [6] was above 200 µg/mL in each case. Moreover, the MIC in the series on Micrococcus luteus [8], with Pseudomonas aeruginosa [9] and in the series with Staphylococcus aureus [10] was above 200 µg/mL each time. In the series on Erythrocyte, this compound displayed an HC50 above 200 µg/mL.

Consider `CC(C)C[C@H](NC(=O)[C@H](CS)NC(=O)[C@H](CCCCN)NC(=O)[C@H](C)NC(=O)[C@H](C)NC(=O)[C@H](CS)NC(=O)[C@H](C)NC(=O)[C@H](C)NC(=O)[C@@H](N)CC(=O)O)C(=O)N[C@@H](Cc1c[nH]c2ccccc12)C(=O)N[C@@H](CCCNC(=N)N)C(N)=O` (H-DAACAAKCLWR-NH2), for which the MIC with Staphylococcus aureus [1] is above 200 µg/mL; in the series on Escherichia coli [2] it was 200 µg/mL (≈ 166 µM); in the series on Micrococcus luteus [3], 200 µg/mL (≈ 166 µM); with Candida albicans [4], above 200 µg/mL; in the series on Pseudomonas aeruginosa [5] it was above 200 µg/mL; in the series on Escherichia coli [6] it was above 200 µg/mL. The MIC with Micrococcus luteus [8] is above 200 µg/mL; with Pseudomonas aeruginosa [9], above 200 µg/mL; against Staphylococcus aureus [10], 200 µg/mL (≈ 166 µM). In addition, the HC50 with Erythrocyte is above 200 µg/mL.

With `CC(C)C[C@H](NC(=O)[C@@H]1CSSC[C@H](NC(=O)[C@H](C)NC(=O)[C@H](C)NC(=O)[C@@H](N)CC(=O)O)C(=O)N[C@@H](C)C(=O)N[C@@H](C)C(=O)N[C@@H](CCCCN)C(=O)N1)C(=O)N[C@@H](Cc1c[nH]c2ccccc12)C(=O)N[C@@H](CCCNC(=N)N)C(N)=O` (H-DAACAAKCLWR-NH2; disulfide 4-8), the MIC in the series with Staphylococcus aureus [1], with Escherichia coli [2], against Micrococcus luteus [3], with Candida albicans [4], against Pseudomonas aeruginosa [5] and in the series on Escherichia coli [6] was above 200 µg/mL each time. The minimum inhibitory concentration (MIC) with Micrococcus luteus [8], with Pseudomonas aeruginosa [9] and against Staphylococcus aureus [10] was above 200 µg/mL each time. In the series with Erythrocyte, this compound displayed an HC50 above 200 µg/mL.

Consider `CC(C)C[C@H](NC(=O)[C@H](CS)NC(=O)[C@H](Cc1cnc[nH]1)NC(=O)[C@H](C)NC(=O)[C@H](C)NC(=O)[C@H](CS)NC(=O)[C@H](C)NC(=O)[C@H](C)NC(=O)[C@@H](N)CCCCN)C(=O)N[C@@H](Cc1c[nH]c2ccccc12)C(=O)N[C@@H](CCCNC(=N)N)C(N)=O` (H-KAACAAHCLWR-NH2) [listing 1 of 2 here], for which the Activity in series [11] came out at 70%.

On to `CC(C)C[C@H](NC(=O)[C@H](CS)NC(=O)[C@H](Cc1cnc[nH]1)NC(=O)[C@H](C)NC(=O)[C@H](C)NC(=O)[C@H](CS)NC(=O)[C@H](C)NC(=O)[C@H](C)NC(=O)[C@@H](N)CCCCN)C(=O)N[C@@H](Cc1c[nH]c2ccccc12)C(=O)N[C@@H](CCCNC(=N)N)C(N)=O` (H-KAACAAHCLWR-NH2) [listing 2 of 2 here], for which the MIC with Staphylococcus aureus [1] is above 200 µg/mL; in the series on Escherichia coli [2] it was 50 µg/mL; in the series with Micrococcus luteus [3] it was 25 µg/mL; in the series with Candida albicans [4], above 200 µg/mL; with Pseudomonas aeruginosa [5], 100 µg/mL; with Escherichia coli [6], above 200 µg/mL. Further, the MIC is above 200 µg/mL in the series with Micrococcus luteus [8], above 200 µg/mL with Pseudomonas aeruginosa [9] and 50 µg/mL against Staphylococcus aureus [10]. In the series with Erythrocyte, the concentration for 50% haemolysis (HC50) was above 200 µg/mL.

Take `CC(C)C[C@H](NC(=O)[C@@H]1CSSC[C@H](NC(=O)[C@H](C)NC(=O)[C@H](C)NC(=O)[C@@H](N)CCCCN)C(=O)N[C@@H](C)C(=O)N[C@@H](C)C(=O)N[C@@H](Cc2cnc[nH]2)C(=O)N1)C(=O)N[C@@H](Cc1c[nH]c2ccccc12)C(=O)N[C@@H](CCCNC(=N)N)C(N)=O` (H-KAACAAHCLWR-NH2; disulfide 4-8): the MIC in the series with Staphylococcus aureus [1] is 100 µg/mL; in the series on Escherichia coli [2], above 200 µg/mL; in the series with Micrococcus luteus [3] it was 100 µg/mL; in the series on Candida albicans [4] it was above 200 µg/mL; in the series with Pseudomonas aeruginosa [5], above 200 µg/mL; in the series with Escherichia coli [6], above 200 µg/mL. In addition, the minimal inhibitory concentration (MIC) with Micrococcus luteus [8] was 100 µg/mL; in the series on Pseudomonas aeruginosa [9], above 200 µg/mL; against Staphylococcus aureus [10] it was 100 µg/mL. Further, the Activity in series [11] came to 20%. Besides, the 50% haemolytic concentration (HC50) in the series on Erythrocyte was above 200 µg/mL.

For the compound `CC(C)C[C@H](NC(=O)[C@H](CS)NC(=O)[C@H](CCCCN)NC(=O)[C@H](C)NC(=O)[C@H](C)NC(=O)[C@H](CS)NC(=O)[C@H](C)NC(=O)[C@H](C)NC(=O)[C@@H](N)CCCCN)C(=O)N[C@@H](Cc1c[nH]c2ccccc12)C(=O)N[C@@H](CCCNC(=N)N)C(N)=O` (H-KAACAAKCLWR-NH2), the minimum inhibitory concentration (MIC) in the series on Staphylococcus aureus [1] was 100 µg/mL; in the series with Escherichia coli [2] it was 50 µg/mL (≈ 41 µM); with Micrococcus luteus [3], 25 µg/mL (≈ 20.5 µM); in the series with Candida albicans [4] it was above 200 µg/mL; against Pseudomonas aeruginosa [5], 100 µg/mL (≈ 82 µM); with Escherichia coli [6] it was above 200 µg/mL. Besides, the MIC in the series with Micrococcus luteus [8] is 200 µg/mL; with Pseudomonas aeruginosa [9], above 200 µg/mL; with Staphylococcus aureus [10], 50 µg/mL (≈ 41 µM). Moreover, the HC50 in the series on Erythrocyte was above 200 µg/mL.

With `CC(C)C[C@H](NC(=O)[C@@H]1CSSC[C@H](NC(=O)[C@H](C)NC(=O)[C@H](C)NC(=O)[C@@H](N)CCCCN)C(=O)N[C@@H](C)C(=O)N[C@@H](C)C(=O)N[C@@H](CCCCN)C(=O)N1)C(=O)N[C@@H](Cc1c[nH]c2ccccc12)C(=O)N[C@@H](CCCNC(=N)N)C(N)=O` (H-KAACAAKCLWR-NH2; disulfide 4-8), the minimum inhibitory concentration (MIC) was above 200 µg/mL with Staphylococcus aureus [1]; 50 µg/mL (≈ 41.1 µM) against Escherichia coli [2]; 50 µg/mL (≈ 41.1 µM) against Micrococcus luteus [3]; above 200 µg/mL with Candida albicans [4]; above 200 µg/mL in the series on Pseudomonas aeruginosa [5]; 200 µg/mL with Escherichia coli [6]. In addition, the MIC in the series with Micrococcus luteus [8] is 200 µg/mL; with Pseudomonas aeruginosa [9], above 200 µg/mL; in the series with Staphylococcus aureus [10], 50 µg/mL (≈ 41.1 µM). In addition, in the series with Erythrocyte, the concentration for 50% haemolysis (HC50) was above 200 µg/mL.

The values above are taken from ChEMBL document CHEMBL1157136, “Design and synthesis of cyclic disulfide-bonded antibacterial peptides on the basis of the alpha helical domain of Tenecin 1, an insect defensin” (Bioorg Med Chem, 2008).
